Assay results taken from US9072729B2, “Method for treating fibrosis and cancer with imidazolium and imidazolinium compounds” (Agency for Science, Technology and Research, priority 2008, dated 2015).

How the values were obtained:
[1] = system: primary HSCs; assay: Protection of primary HSCs from DMSO cytotoxicity; assay type: cell-based, Wistar rat; conditions: DBZIM 100 μM, TDBZIM 50 μM
Procedure: FIG. 5. DBZIM and TDBZIM protected primary HSC cells against oxidative stress induced by 0.2% (v/v) of DMSO. (a) Optical images of cells treated with IMSs for 26 and 93 h. Scale bar=60 μm. 0.2% (v/v) of DMSO induced oxidative stress by depleting the total GSH level (b), inducing the GSSG level (c), reducing the GSH/GSSG ratio (d), and inducing GPX (e), CAT (f) and SOD (g) activity levels. The data were presented as mean and SEM, N=6, *^cP<0.005, and *^dP<0.0005; when compared to the untreated sample.
The isolation of primary HSCs from Wistar rat liver was performed primarily following the method provided in a previous report (Weiskirchen et al. 2005). Briefly, the supernatant of cell suspension after hepatocyte removal was washed and re-suspended in 9.5 ml of Gey's balance salt solution (GBSS), and mixed with 8 ml of 28.7% (w/v) Histodenz in GBSS. The gradient was prepared by laying the cell suspension underneath 6 ml of GBSS, and centrifuged in Histodenz gradient at 1400×g for 20 min. The stellate cells were separated into a fuzzy band just above the interface of the Histodenz solution and the aqueous buffer. The stellate cell band was harvested, washed, and 1×10^6 cells/well were seeded in a 6-well culture plate in Dulbecco modified Eagle's medium (DMEM) supplemented with 10% fetal bovine serum (FBS). The viability of the HSCs was >95% as determined by trypan blue exclusion staining, and the purity of the HSCs was >90% as assessed by glial fibrillary acidic protein (GFAP) positive staining in >200 cells counted. Primary HSCs were routinely cultured in DMEM with 10% FBS in a humidified CO2 incubator at 37° C., and split at 1:4 ratio by trypsinization (0.05% trypsin/0.53 mM ethylenediaminetetraacetic acid (EDTA)) when they grew to confluency. The HSC-T6 cell line was kindly provided by Dr. Scott Friedman of Mount Sinai School of Medicine, New York. A stable T6/GFAP-LacZ clonal cell line was established as previously reported (Maubach et al. 2006). HSC-T6 and T6/GFAP-LacZ cells were cultured in the same conditions as the primary HSCs.

[2] = system: p53; assay: Immunostaining and confocal microscopy of p53; assay type: cell-based, human; conditions: HLE, 48 h
Procedure: FIG. 39. IMSs-induced apoptosis was accompanied by accumulation of p53 in the nucleus. HLE cells were treated with the indicated dose of IBN 19 and IBN 24 for 48 h. The treated cells were fixed with 4% formaldehyde, immunostained with anti-p53 (green fluorescence) and DAPI (blue fluorescence), and analysed by confocal microscopy.
For immunostaining, HLE cells were seeded at a density of 1×10^4 in 8 well chamber slide. After 24 h incubation, the cells were replaced with 200 μl fresh 10% DMEM medium and then treated with 60 μM of IBN-15, 90 μM of IBN-19, 90 μM of IBN-24, 30 μM of IBN-25 and 20 μM of IBN-32 and 0.045% DMSO as control for 24 and 48 h. After washing, cells were fixed in 4% formaldehyde for 15 mins and permeabilized with 0.5% Triton X-100 in PBS for 10 mins. The cells were then blocked for 60 min in PBS containing 3% bovine serum albumin and then incubated for 1 h with a mouse antibody against nucleolin (MS-3, Santa Cruz; 1:100 in blocking buffer). After washing extensively with PBS, the cells were then incubated for 1 h at room temperature in dark with a FITC-conjugated antibody against mouse IgG (1:20 ilution). The slides were mounted with a VectaShield medium containing DAPI (Vector Laboratories, Burlingame, Calif.). Microscopy was performed with a Zeiss LSM 510 Meta (upright stand) confocal microscope.

[3] = system: HLE cells; assay: Apoptosis assay (Annexin V-FITC/PI flow cytometry); assay type: cell-based, human; conditions: 72 h, IBN-15 60 μM, IBN-19 90 μM, IBN-24 90 μM, IBN-25 30 μM, IBN-32 20 μM, DMSO 0.045%
Procedure: FIG. 36. IMSs induce apoptosis in Hepatocarcinoma cells. A) Cells were treated with vehicle and IBN 15, IBN 19, IBM 24, IBN 25 and IBN 32 for 72 h, and apoptosis was quantified using Annexin V-FITC/PI staining followed by flow cytometric analysis. 10,000 cells were detected for every sample. Living cells are in the bottom left quadrants (FITC− and PI−), early apoptotic cells in the bottom right quadrants (FITC+ and PI−), and late apoptotic cells in the upper right quadrants (apoptotic FITC+ and PI+). B) The percentage of apoptotic cells with respect to different IMSs.
To determine apoptosis analysis, 4×10^5 cells were plated in 10 cm dish. […] The floating and trypsinized adherent cells were collected and the apoptosis was quantified using Annexin V-FITC reagent (BD Biosciences Pharmingen) and PI (Invitrogen) following the manufacturer's protocol. Briefly, the cells were washed twice with cold PBS and then resuspend cell in 100 μl of × binding buffer containing a 10 μl of Annexin V-FITC (BD-Pharminagen) and 2 μl of PI from the stock of 100 μg/ml. The cells were gently vortexed and incubated for 15 min at room temperature in the dark. Subsequently 400 μl of 1× binding buffer were added to each tube, and the samples were immediately analyzed by FACScan flow cytometer (Becton Dickinson). The fluorescent signals of the Annexin-V conjugate and PI were detected at channels of fluorescence intensity FL1 and FL2 (BD LSR II with software BD).
Cells undergoing apoptosis would stain positive for Annexin and negative for PI (quadrant 4, Q4). Cells which stained positive for both Annexin V-FITC and PI (Q2) are either at the end stage of apoptosis or undergoing necrosis, and those which stained negative for both Annexin V-FITC and PI (Q3) were alive or undergoing undetectable apoptosis. In contrast, cell debris stained only for PI (Q1).

1,3,5-tris(4-methyl-imidazolium)-linked cyclophane.3Br [TDBZIM]
cell survival in 0.2% (v/v) DMSO ([1]; 26 h): survived | cell survival in 0.2% (v/v) DMSO ([1]; over 93 h): remained viable and proliferated to confluency

[Br-].c1ccc(Cn2cc[n+](Cc3ccccc3)c2)cc1 [DBZIM, 1,3-bisbenzylimidazolium bromide]
cell survival in 0.2% (v/v) DMSO ([1]; 26 h): survived | cell survival in 0.2% (v/v) DMSO ([1]; over 93 h): most cells died

CC(=O)Oc1ccc(C[n+]2ccn(Cc3ccccc3)c2C)cc1.[Cl-] [IBN-19, 1-benzyl-3-(4-acetate-benzyl)-2-methyl-imidazolium chloride]
p53 expression and nuclear accumulation [2]: induced p53 expression and accumulation in the nucleus | cell apoptosis (Q2) [3]: 29%

Cc1ccc(C[n+]2ccn(Cc3ccccc3)c2)cc1.[Cl-] [IBN-24, 1-benzyl-3-(4-methylbenzyl)-imidazolium chloride]
p53 expression and nuclear accumulation [2]: induced p53 expression and accumulation in the nucleus | cell apoptosis (Q2) [3]: 29%
